According to the kinase profiling compilation of Christmann-Franck et al. (2016):

How the values were obtained:
Test in all cases: KINOMEscan competition binding
Settings in all cases: compound 10.0 µM
HIPK1 (human) = HIPK1 (human) (UniProt Q86Z02)
MAPK10 (human) = MAPK10 (human) (UniProt P53779)
RPS6KA6 KD2 (human) = RPS6KA6 KD2 (human) (UniProt Q9UK32)
AAK1 (human) = AAK1 (human) (UniProt Q2M2I8)
AXL (human) = AXL (human) (UniProt P30530)
RPS6KA4 KD2 (human) = RPS6KA4 KD2 (human) (UniProt O75676)
CHEK2 (human) = CHEK2 (human) (UniProt O96017)
FGFR4 (human) = FGFR4 (human) (UniProt P22455)
PRKCH (human) = PRKCH (human) (UniProt P24723)
[1] = molecular target: JAK1 JH1 catalytic (human) (UniProt P23458)
CAMK1G (human) = CAMK1G (human) (UniProt Q96NX5)
CDKL2 (human) = CDKL2 (human) (UniProt Q92772)
TEK (human) = TEK (human) (UniProt Q02763)
CAMK2A (human) = CAMK2A (human) (UniProt Q9UQM7)
CAMK2B (human) = CAMK2B (human) (UniProt Q13554)
HIPK4 (human) = HIPK4 (human) (UniProt Q8NE63)
STK4 (human) = STK4 (human) (UniProt Q13043)
MYO3A (human) = MYO3A (human) (UniProt Q8NEV4)
YSK4 (human) = YSK4 (human) (UniProt Q56UN5)
NEK7 (human) = NEK7 (human) (UniProt Q8TDX7)
PRKG1 (human) = PRKG1 (human) (UniProt Q13976)
GAK (human) = GAK (human) (UniProt O14976)
FLT3 (human) = FLT3 (human) (UniProt P36888)
MAK (human) = MAK (human) (UniProt P20794)
MAP3K4 (human) = MAP3K4 (human) (UniProt Q9Y6R4)
CSK (human) = CSK (human) (UniProt P41240)
PKN2 (human) = PKN2 (human) (UniProt Q16513)
PLK2 (human) = PLK2 (human) (UniProt Q9NYY3)
SRMS (human) = SRMS (human) (UniProt Q9H3Y6)
DCLK1 (human) = DCLK1 (human) (UniProt O15075)
GSK3B (human) = GSK3B (human) (UniProt P49841)
IKBKE (human) = IKBKE (human) (UniProt Q14164)
DAPK2 (human) = DAPK2 (human) (UniProt Q9UIK4)
[2] = molecular target: JAK2 JH1 catalytic (human) (UniProt O60674)
MAPK7 (human) = MAPK7 (human) (UniProt Q13164)
GRK7 (human) = GRK7 (human) (UniProt Q8WTQ7)
LTK (human) = LTK (human) (UniProt P29376)
CIT (human) = CIT (human) (UniProt O14578)
INSRR (human) = INSRR (human) (UniProt P14616)
MAP2K5 (human) = MAP2K5 (human) (UniProt Q13163)

Chain of FGFR4 (human) (P22455 whole entry, looked up): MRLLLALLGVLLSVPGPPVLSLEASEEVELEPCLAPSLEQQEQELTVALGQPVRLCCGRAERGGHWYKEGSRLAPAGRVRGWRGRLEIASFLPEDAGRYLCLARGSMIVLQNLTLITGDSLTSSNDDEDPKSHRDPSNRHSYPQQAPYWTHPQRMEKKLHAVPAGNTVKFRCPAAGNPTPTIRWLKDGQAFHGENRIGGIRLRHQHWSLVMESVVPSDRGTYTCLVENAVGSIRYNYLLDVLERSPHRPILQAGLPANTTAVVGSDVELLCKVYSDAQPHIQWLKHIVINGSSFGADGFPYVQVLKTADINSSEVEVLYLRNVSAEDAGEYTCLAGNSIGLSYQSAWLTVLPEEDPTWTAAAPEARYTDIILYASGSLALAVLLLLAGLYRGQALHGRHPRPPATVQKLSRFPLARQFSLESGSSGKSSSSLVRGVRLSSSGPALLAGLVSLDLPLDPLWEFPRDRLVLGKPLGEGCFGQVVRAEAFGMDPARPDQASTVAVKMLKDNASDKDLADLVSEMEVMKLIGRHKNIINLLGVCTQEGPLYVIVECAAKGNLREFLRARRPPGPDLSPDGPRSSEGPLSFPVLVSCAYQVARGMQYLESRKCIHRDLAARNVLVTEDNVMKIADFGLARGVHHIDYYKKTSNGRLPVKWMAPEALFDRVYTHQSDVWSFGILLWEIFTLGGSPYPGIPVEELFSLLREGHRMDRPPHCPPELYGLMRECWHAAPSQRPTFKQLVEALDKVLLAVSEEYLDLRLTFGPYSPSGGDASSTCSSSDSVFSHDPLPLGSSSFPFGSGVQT
Chain of CAMK2A (human) (Q9UQM7 whole entry, looked up): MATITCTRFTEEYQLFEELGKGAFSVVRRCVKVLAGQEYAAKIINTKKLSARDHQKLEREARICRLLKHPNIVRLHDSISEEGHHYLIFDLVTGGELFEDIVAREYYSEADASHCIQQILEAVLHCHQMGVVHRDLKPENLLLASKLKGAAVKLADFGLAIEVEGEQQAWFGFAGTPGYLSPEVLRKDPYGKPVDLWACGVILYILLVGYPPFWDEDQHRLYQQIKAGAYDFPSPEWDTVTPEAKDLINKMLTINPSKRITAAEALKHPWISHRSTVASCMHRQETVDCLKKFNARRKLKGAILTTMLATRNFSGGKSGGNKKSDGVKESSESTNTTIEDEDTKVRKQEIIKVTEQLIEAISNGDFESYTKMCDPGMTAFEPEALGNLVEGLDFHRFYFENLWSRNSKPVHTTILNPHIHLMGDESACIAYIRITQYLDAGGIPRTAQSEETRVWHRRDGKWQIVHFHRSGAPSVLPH
Chain of JAK1 JH1 catalytic (human) (P23458 whole entry, looked up): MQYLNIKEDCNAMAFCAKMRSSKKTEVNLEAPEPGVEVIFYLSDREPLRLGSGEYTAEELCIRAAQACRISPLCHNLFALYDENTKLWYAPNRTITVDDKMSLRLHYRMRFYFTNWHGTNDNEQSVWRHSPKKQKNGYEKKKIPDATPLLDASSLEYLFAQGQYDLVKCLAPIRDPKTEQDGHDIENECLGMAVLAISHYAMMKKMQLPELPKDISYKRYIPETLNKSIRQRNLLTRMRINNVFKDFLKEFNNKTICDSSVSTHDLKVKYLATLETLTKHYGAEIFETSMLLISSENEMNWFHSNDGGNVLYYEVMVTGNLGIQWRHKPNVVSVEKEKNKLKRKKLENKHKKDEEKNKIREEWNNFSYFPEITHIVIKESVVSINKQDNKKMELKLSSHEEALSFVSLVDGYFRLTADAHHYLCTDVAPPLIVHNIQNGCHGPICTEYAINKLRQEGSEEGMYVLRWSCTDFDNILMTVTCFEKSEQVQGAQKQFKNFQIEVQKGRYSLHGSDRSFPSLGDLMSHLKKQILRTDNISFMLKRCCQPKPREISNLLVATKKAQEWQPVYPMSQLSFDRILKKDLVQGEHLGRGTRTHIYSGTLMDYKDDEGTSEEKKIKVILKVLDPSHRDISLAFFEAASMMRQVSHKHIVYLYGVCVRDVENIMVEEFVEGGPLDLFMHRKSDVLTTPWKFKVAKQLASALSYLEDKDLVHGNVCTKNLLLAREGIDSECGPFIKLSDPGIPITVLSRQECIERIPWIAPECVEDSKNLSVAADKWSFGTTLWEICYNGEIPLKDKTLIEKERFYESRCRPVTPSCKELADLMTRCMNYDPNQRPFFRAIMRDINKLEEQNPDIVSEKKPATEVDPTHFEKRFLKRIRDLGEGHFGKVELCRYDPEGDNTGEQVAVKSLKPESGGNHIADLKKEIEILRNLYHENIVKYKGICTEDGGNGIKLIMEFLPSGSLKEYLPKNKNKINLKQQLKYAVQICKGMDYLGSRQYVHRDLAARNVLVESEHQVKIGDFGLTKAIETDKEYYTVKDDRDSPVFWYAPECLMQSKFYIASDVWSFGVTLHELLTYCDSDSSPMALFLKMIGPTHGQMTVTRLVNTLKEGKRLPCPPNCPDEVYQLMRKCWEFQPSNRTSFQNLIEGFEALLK
Chain of RPS6KA4 KD2 (human) (O75676 whole entry, looked up): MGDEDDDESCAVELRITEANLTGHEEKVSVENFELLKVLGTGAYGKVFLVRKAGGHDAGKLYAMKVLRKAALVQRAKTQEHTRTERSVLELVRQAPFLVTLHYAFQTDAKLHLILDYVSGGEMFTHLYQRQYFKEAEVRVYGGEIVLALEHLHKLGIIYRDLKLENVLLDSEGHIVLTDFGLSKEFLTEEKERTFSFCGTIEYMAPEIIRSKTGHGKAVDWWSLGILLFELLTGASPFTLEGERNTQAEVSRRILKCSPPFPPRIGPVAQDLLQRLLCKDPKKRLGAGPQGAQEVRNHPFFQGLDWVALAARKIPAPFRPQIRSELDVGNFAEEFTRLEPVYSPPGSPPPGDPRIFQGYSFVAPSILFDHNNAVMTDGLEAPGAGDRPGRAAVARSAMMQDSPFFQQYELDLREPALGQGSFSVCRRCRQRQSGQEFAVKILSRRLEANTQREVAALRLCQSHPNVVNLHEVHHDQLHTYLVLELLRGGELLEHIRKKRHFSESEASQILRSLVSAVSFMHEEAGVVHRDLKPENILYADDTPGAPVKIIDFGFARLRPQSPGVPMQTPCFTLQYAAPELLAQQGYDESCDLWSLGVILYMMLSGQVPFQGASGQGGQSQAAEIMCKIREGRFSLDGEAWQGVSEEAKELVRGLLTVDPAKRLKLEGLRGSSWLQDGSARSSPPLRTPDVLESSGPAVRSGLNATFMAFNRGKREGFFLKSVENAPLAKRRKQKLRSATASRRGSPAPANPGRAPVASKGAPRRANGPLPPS
Chain of CAMK1G (human) (Q96NX5 whole entry, looked up): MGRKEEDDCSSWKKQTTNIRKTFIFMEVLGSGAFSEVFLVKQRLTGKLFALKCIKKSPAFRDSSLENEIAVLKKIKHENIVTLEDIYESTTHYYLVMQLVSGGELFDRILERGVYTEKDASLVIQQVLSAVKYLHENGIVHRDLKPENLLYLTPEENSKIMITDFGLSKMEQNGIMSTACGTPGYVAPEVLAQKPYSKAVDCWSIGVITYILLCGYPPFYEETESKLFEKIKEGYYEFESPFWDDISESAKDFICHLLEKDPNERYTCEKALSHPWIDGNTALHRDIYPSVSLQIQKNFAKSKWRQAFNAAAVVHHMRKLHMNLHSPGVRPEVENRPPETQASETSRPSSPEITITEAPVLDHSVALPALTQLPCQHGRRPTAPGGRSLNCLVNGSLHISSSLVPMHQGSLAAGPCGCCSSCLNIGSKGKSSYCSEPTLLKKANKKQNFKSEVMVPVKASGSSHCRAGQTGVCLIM
Chain of TEK (human) (Q02763 whole entry, looked up): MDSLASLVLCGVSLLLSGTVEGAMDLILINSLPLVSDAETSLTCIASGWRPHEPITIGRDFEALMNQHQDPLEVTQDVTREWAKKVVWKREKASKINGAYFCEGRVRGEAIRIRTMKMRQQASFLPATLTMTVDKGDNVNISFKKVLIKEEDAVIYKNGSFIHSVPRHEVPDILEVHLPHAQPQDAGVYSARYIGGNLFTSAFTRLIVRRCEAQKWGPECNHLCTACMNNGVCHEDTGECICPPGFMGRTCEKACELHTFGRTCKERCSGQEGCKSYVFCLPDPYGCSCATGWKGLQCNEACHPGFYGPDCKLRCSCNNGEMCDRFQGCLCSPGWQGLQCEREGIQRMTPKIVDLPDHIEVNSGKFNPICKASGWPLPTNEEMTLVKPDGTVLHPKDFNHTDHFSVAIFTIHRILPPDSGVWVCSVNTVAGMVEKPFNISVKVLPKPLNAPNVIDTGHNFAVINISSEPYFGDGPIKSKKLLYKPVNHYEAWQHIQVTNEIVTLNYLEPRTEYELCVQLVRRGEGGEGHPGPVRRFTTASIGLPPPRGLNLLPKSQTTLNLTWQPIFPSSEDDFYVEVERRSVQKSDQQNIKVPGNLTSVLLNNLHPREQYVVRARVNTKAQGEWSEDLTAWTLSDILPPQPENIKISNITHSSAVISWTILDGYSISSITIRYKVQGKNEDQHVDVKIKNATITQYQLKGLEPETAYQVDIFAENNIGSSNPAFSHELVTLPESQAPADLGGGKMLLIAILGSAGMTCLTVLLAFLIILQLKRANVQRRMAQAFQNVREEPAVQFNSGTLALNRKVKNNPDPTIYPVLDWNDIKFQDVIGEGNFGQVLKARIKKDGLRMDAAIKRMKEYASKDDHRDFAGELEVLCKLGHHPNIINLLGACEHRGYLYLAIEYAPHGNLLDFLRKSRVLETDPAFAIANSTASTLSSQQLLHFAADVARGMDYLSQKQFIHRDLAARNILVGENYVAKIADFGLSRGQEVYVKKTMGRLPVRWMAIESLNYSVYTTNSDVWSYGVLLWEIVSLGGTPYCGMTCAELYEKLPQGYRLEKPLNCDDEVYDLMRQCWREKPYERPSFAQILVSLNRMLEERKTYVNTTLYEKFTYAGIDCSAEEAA

| kinase still bound, per cent of control (HIPK1 (human)) | kinase still bound, per cent of control (MAPK10 (human)) | kinase still bound, per cent of control (RPS6KA6 KD2 (human)) | kinase still bound, per cent of control (AAK1 (human)) | kinase still bound, per cent of control (AXL (human)) | kinase still bound, per cent of control (RPS6KA4 KD2 (human)) | kinase still bound, per cent of control (CAMK1G (human)) | kinase still bound, per cent of control (CDKL2 (human)) | kinase still bound, per cent of control (CAMK2A (human)) | kinase still bound, per cent of control (CAMK2B (human)) | kinase still bound, per cent of control (STK4 (human)) | kinase still bound, per cent of control (MYO3A (human)) | kinase still bound, per cent of control (NEK7 (human)) | kinase still bound, per cent of control (GAK (human)) | kinase still bound, per cent of control (FLT3 (human)) | kinase still bound, per cent of control (CSK (human)) | kinase still bound, per cent of control (PKN2 (human)) | kinase still bound, per cent of control (SRMS (human)) | kinase still bound, per cent of control (DCLK1 (human)) | kinase still bound, per cent of control (IKBKE (human)) | Compound | also measured |
| --- | --- | --- | --- | --- | --- | --- | --- | --- | --- | --- | --- | --- | --- | --- | --- | --- | --- | --- | --- | --- | --- |
| 100% | 100% | 31% | 100% | 100% | 100% | 100% | 100% | 100% | 100% | 100% | 100% | 100% | 31% | 100% | 100% | 100% | 100% | 0.9% | 100% | CCOc1cc(N2CCC(O)CC2)ccc1Nc1ncc2c(n1)N(C)c1ccccc1C(=O)N2C | kinase still bound, per cent of control (CHEK2 (human)): 100%; kinase still bound, per cent of control (FGFR4 (human)): 100%; kinase still bound, per cent of control (PRKCH (human)): 100%; kinase still bound, per cent of control [1]: 100%; kinase still bound, per cent of control (TEK (human)): 100%; kinase still bound, per cent of control (HIPK4 (human)): 100%; kinase still bound, per cent of control (YSK4 (human)): 100%; kinase still bound, per cent of control (PRKG1 (human)): 100%; kinase still bound, per cent of control (MAK (human)): 100%; kinase still bound, per cent of control (MAP3K4 (human)): 100%; kinase still bound, per cent of control (PLK2 (human)): 100%; kinase still bound, per cent of control (GSK3B (human)): 100%; kinase still bound, per cent of control (DAPK2 (human)): 100%; kinase still bound, per cent of control [2]: 100%; kinase still bound, per cent of control (MAPK7 (human)): 0%; kinase still bound, per cent of control (GRK7 (human)): 100%; kinase still bound, per cent of control (LTK (human)): 100%; kinase still bound, per cent of control (CIT (human)): 100%; kinase still bound, per cent of control (INSRR (human)): 100% |
| 100% | 100% | 100% | 100% | 100% | 100% | 100% | 100% | 100% | 100% | 100% | 100% | 100% | 100% | 100% | 29% | 100% | 26% | 100% | 100% | Cc1cn(-c2cc(C(=O)Nc3ccc(C)c(NC(=O)c4ccno4)c3)cc(C(F)(F)F)c2)cn1 | kinase still bound, per cent of control (CHEK2 (human)): 100%; kinase still bound, per cent of control (FGFR4 (human)): 100%; kinase still bound, per cent of control (PRKCH (human)): 100%; kinase still bound, per cent of control [1]: 100%; kinase still bound, per cent of control (TEK (human)): 100%; kinase still bound, per cent of control (HIPK4 (human)): 100%; kinase still bound, per cent of control (YSK4 (human)): 100%; kinase still bound, per cent of control (PRKG1 (human)): 100%; kinase still bound, per cent of control (MAK (human)): 100%; kinase still bound, per cent of control (MAP3K4 (human)): 100%; kinase still bound, per cent of control (PLK2 (human)): 100%; kinase still bound, per cent of control (GSK3B (human)): 100%; kinase still bound, per cent of control (DAPK2 (human)): 100%; kinase still bound, per cent of control [2]: 100%; kinase still bound, per cent of control (MAPK7 (human)): 100%; kinase still bound, per cent of control (GRK7 (human)): 100%; kinase still bound, per cent of control (LTK (human)): 100%; kinase still bound, per cent of control (CIT (human)): 31%; kinase still bound, per cent of control (INSRR (human)): 100% |
| 100% | 28% | 9% | 100% | 8.6% | 100% | 100% | 100% | 32% | 100% | 100% | 15% | 100% | 2.5% | 100% | 100% | 100% | 7.3% | 18% | 100% | COc1cc(N2CCC(C(N)=O)CC2)ccc1Nc1nc(N)c(Cl)c(Nc2ccccc2S(=O)(=O)C(C)C)n1 | kinase still bound, per cent of control (CHEK2 (human)): 14%; kinase still bound, per cent of control (FGFR4 (human)): 100%; kinase still bound, per cent of control (PRKCH (human)): 100%; kinase still bound, per cent of control [1]: 100%; kinase still bound, per cent of control (TEK (human)): 100%; kinase still bound, per cent of control (PRKG1 (human)): 100%; kinase still bound, per cent of control (MAP3K4 (human)): 100%; kinase still bound, per cent of control (GSK3B (human)): 100%; kinase still bound, per cent of control (DAPK2 (human)): 100%; kinase still bound, per cent of control [2]: 100%; kinase still bound, per cent of control (MAPK7 (human)): 100%; kinase still bound, per cent of control (LTK (human)): 0.6%; kinase still bound, per cent of control (CIT (human)): 100%; kinase still bound, per cent of control (INSRR (human)): 1.2% |

| Compound | kinase still bound, per cent of control (HIPK1 (human)) | kinase still bound, per cent of control (MAPK10 (human)) | kinase still bound, per cent of control (RPS6KA6 KD2 (human)) | kinase still bound, per cent of control (AAK1 (human)) | kinase still bound, per cent of control (AXL (human)) | kinase still bound, per cent of control (RPS6KA4 KD2 (human)) | kinase still bound, per cent of control (CAMK1G (human)) | kinase still bound, per cent of control (CDKL2 (human)) | kinase still bound, per cent of control (CAMK2A (human)) | kinase still bound, per cent of control (CAMK2B (human)) | kinase still bound, per cent of control (STK4 (human)) | kinase still bound, per cent of control (MYO3A (human)) | kinase still bound, per cent of control (NEK7 (human)) | kinase still bound, per cent of control (GAK (human)) | kinase still bound, per cent of control (FLT3 (human)) | kinase still bound, per cent of control (CSK (human)) | kinase still bound, per cent of control (PKN2 (human)) | kinase still bound, per cent of control (SRMS (human)) | kinase still bound, per cent of control (DCLK1 (human)) | kinase still bound, per cent of control (IKBKE (human)) | also measured |
| --- | --- | --- | --- | --- | --- | --- | --- | --- | --- | --- | --- | --- | --- | --- | --- | --- | --- | --- | --- | --- | --- |
| CC(=O)c1c(C)c2cnc(Nc3ccc(N4CCNCC4)cn3)nc2n(C2CCCC2)c1=O | 0.1% | 0.35% | 38% | 11% | 16% | 3.2% | 20% | 6.8% | 3.2% | 4.4% | 74% | 58% | 60% | 4.4% | 35% | 90% | 48% | 49% | 2.9% | 22% | kinase still bound, per cent of control (HIPK4 (human)): 6%; kinase still bound, per cent of control (YSK4 (human)): 4.3%; kinase still bound, per cent of control (MAK (human)): 76%; kinase still bound, per cent of control (MAP2K5 (human)): 62%; kinase still bound, per cent of control (PLK2 (human)): 14%; kinase still bound, per cent of control (DAPK2 (human)): 2.4%; kinase still bound, per cent of control [2]: 0.65%; kinase still bound, per cent of control (MAPK7 (human)): 0.65%; kinase still bound, per cent of control (GRK7 (human)): 13%; kinase still bound, per cent of control (CIT (human)): 3.2%; kinase still bound, per cent of control (INSRR (human)): 98% |
